Test results published in patent US11472803B2, “7-substituted 1-aryl-naphthyridine-3-carboxylic acid amides and use thereof” (Bayer Aktiengesellschaft, priority 2016, dated 2022).
pEC50: −log10 of the molar value. Structures can show the parent of a compound that is named as a salt.

Molecular target: T1, human M2 receptor (Homo sapiens, UniProt P08172)
T1 construct: expressed in transfected cells; host or cells: CHO-DUKX (CHO-DUKX-M2-GIRK)
T1 sequence (P08172 1-466): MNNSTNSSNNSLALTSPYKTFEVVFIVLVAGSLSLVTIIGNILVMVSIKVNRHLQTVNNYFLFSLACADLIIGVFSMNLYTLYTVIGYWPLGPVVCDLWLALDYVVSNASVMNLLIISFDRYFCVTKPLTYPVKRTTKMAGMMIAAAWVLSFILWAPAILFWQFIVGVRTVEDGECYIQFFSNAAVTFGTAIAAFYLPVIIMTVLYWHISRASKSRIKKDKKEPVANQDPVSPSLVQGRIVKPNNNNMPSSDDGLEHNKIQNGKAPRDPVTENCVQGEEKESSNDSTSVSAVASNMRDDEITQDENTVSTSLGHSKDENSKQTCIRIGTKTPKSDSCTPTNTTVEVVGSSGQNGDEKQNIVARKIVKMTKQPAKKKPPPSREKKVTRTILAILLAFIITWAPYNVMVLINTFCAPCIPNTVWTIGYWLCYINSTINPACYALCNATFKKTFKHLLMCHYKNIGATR
Assay: Functional M2-GIRK1/4 activation test: allosteric potency (EC50) and efficiency at EC20 acetylcholine
Assay type: cell-based
Details: CHO-DUKX-M2-GIRK cells; for pEC50: voltage-sensitive dye, acetylcholine at EC20, in some cases mean of two or more determinations; for Emax / Efficiency: boosting of the acetylcholine effect at EC20 acetylcholine concentration
Procedure, shortened: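 CHO-DUKX cells stably expressing human M2 and GIRK1/4; membrane potential tracked with voltage-sensitive dye at room temperature. Compound added 50 s before acetylcholine at its EC20, then hyperpolarization read 60 s. EC50 (allosteric potency) and efficiency (boost of EC20 ACh effect) from 4-parameter Hill fit.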

## CCC(COC(F)(F)F)NC(=O)c1cn(-c2c(F)cc(F)cc2F)c2nc(N3C[C@@H](O)[C@H](O)C3)c(F)cc2c1=O (stereo partly drawn) [Example 26, 7-[(3R,4R)-3,4-dihydroxypyrrolidin-1-yl]-6-fluoro-4-oxo-N-[(2)-1-(trifluoromethoxy)butan-2-yl]-1-(2,4,6-trifluorophenyl)-1,4-dihydro-1,8-naphthyridine-3-carboxamide]
  pEC50: 8.39
  Emax: 100%

## CCC(COC(F)(F)F)NC(=O)c1cn(-c2c(F)cc(F)cc2F)c2nc(N3C[C@@H](O)[C@@H](O)C3)c(F)cc2c1=O (single isomer, unassigned) [Example 96]
  pEC50: 7.80
  Emax: 96%

## CN1CCN(c2nc3c(cc2F)c(=O)c(C(=O)N[C@@H](C2CC2)C(F)(F)F)cn3-c2c(F)cc(F)cc2F)CC1CO (stereo partly drawn) [Example 179, N-[(1S)-1-Cyclopropyl-2,2,2-trifluoroethyl]-6-fluoro-7-[3-(hydroxymethyl)-4-methylpiperazin-1-yl]-4-oxo-1-(2,4,6-trifluorophenyl)-1,4-dihydro-1,8-naphthyridine-3-carboxamide]
  pEC50: 7.57
  Emax: 100%

## O=C(NC(C(F)(F)F)C(F)(F)F)c1cn(-c2c(F)cc(F)cc2F)c2nc(N3CCC(CO)(CO)CC3)c(F)cc2c1=O [Example 191, 7-[4,4-bis(hydroxymethyl)piperidin-1-yl]-6-fluoro-N-(1,1,1,3,3,3-hexafluoropropan-2-yl)-4-oxo-1-(2,4,6-trifluorophenyl)-1,4-dihydro-1,8-naphthyridine-3-carboxamide]
  pEC50: 7.32
  Emax: 100%

## CC(NC(=O)c1cn(-c2c(F)cc(F)cc2F)c2nc(N3CCC(O)C(O)C3)c(F)cc2c1=O)C(F)(F)C(F)(F)F (single isomer, unassigned) [Example 183, 7-(3,4-Dihydroxypiperidin-1-yl)-6-fluoro-4-oxo-N-(3,3,4,4,4-pentafluorobutan-2-yl)-1-(2,4,6-trifluorophenyl)-1,4-dihydro-1,8-naphthyridine-3-carboxamide]
  pEC50: 7.37
  Efficiency: 96%

## O=C(N[C@@H](C1CC1)C(F)(F)F)c1cn(-c2c(F)cc(F)cc2Cl)c2nc(N3CC4(COC4)C3)c(F)cc2c1=O [Example 68, 1-(2-Chloro-4,6-difluorophenyl)-N-[(1S)-1-cyclopropyl-2,2,2-trifluoroethyl]-6-fluoro-7-(2-oxa-6-azaspiro[3.3]hept-6-yl)-4-oxo-1,4-dihydro-1,8-naphthyridine-3-carboxamide trifluoroacetate]
  pEC50: 7.49
  Emax: 92%

## CCC(C)(CC)NC(=O)c1cn(-c2ncc(F)cc2F)c2nc(N3C[C@@H](O)[C@H](O)C3)c(F)cc2c1=O [Example 76, 1-(3,5-Difluoropyridin-2-yl)-7-[(3R,4R)-3,4-dihydroxypyrrolidin-1-yl]-6-fluoro-N-(3-methylpentan-3-yl)-4-oxo-1,4-dihydro-1,8-naphthyridine-3-carboxamide]
  pEC50: 7.54
  Emax: 100%

## CC(C)C(NC(=O)c1cn(-c2c(F)cc(F)cc2F)c2nc(N3C[C@@H](O)[C@@H](O)C3)c(F)cc2c1=O)C(C)C [Example 103, 7-[(3R,4S)-3,4-Dihydroxypyrrolidin-1-yl]-N-(2,4-dimethylpentan-3-yl)-6-fluoro-4-oxo-1-(2,4,6-trifluorophenyl)-1,4-dihydro-1,8-naphthyridine-3-carboxamide]
  pEC50: 8.09
  Emax: 100%

## CCN(CC(C)O)c1nc2c(cc1F)c(=O)c(C(=O)N[C@@H](C1CC1)C(F)(F)F)cn2-c1c(F)cc(F)cc1F (single isomer, unassigned) [Example 66]
  pEC50: 7.46
  Emax: 92%

## O=C(N[C@@H](C1CC1)C(F)(F)F)c1cn(-c2c(F)cc(F)cc2Cl)c2nc(N3CC(CO)(CO)C3)c(F)cc2c1=O (single isomer, unassigned) [Example 70]
  pEC50: 7.00
  Emax: 86%

## CC(C)[C@H](C)NC(=O)c1cn(-c2c(F)cc(F)cc2F)c2nc(N3C[C@@H](O)[C@@H](O)C3)c(F)cc2c1=O [Example 100, 7-[(3R,4S)-3,4-Dihydroxypyrrolidin-1-yl]-6-fluoro-N-[(2S)-3-methylbutan-2-yl]-4-oxo-1-(2,4,6-trifluorophenyl)-1,4-dihydro-1,8-naphthyridine-3-carboxamide]
  pEC50: 7.50
  Emax: 100%

## CN(C)c1nc2c(cc1F)c(=O)c(C(=O)NC(C)(C)CC(F)(F)F)cn2-c1c(F)cc(F)cc1F [Example 63, 7-(Dimethylamino)-6-fluoro-4-oxo-N-(4,4,4-trifluoro-2-methylbutan-2-yl)-1-(2,4,6-trifluoro-phenyl)-1,4-dihydro-1,8-naphthyridine-3-carboxamide]
  pEC50: 8.41
  Emax: 92%

## COC[C@@H](NC(=O)c1cn(-c2c(F)cc(F)cc2F)c2nc(N3C[C@@H](O)[C@@H](O)C3)c(F)cc2c1=O)C(C)C [Example 102, 7-[(3R,4S)-3,4-Dihydroxypyrrolidin-1-yl]-6-fluoro-N-[(2S)-1-methoxy-3-methylbutan-2-yl]-4-oxo-1-(2,4,6-trifluorophenyl)-1,4-dihydro-1,8-naphthyridine-3-carboxamide]
  pEC50: 6.53
  Emax: 92%

## CN(C)c1nc2c(cc1F)c(=O)c(C(=O)NC(C)(C)C(F)(F)F)cn2-c1c(F)cc(F)cc1F [Example 62, 7-(Dimethylamino)-6-fluoro-4-oxo-N-(1,1,1-trifluoro-2-methylpropan-2-yl)-1-(2,4,6-trifluoro-phenyl)-1,4-dihydro-1,8-naphthyridine-3-carboxamide]
  pEC50: 8.39
  Emax: 88%

## O=C(NC(C(F)(F)F)C(F)(F)F)c1cn(-c2c(F)cc(F)cc2F)c2nc(N3CCCC[C@@H]3CO)c(F)cc2c1=O [Example 188, 6-Fluoro-N-(1,1,1,3,3,3-hexafluoropropan-2-yl)-7-[(2R)-2-(hydroxymethyl)piperidin-1-yl]-4-oxo-1-(2,4,6-trifluorophenyl)-1,4-dihydro-1,8-naphthyridine-3-carboxamide]
  pEC50: 7.59
  Emax: 97%

## CC(NC(=O)c1cn(-c2c(F)cc(F)cc2F)c2nc(N3CCC(CO)(CO)CC3)c(F)cc2c1=O)C(F)(F)C(F)(F)F (single isomer, unassigned) [Example 187, 7-[4,4-bis(hydroxymethyl)piperidin-1-yl]-6-fluoro-4-oxo-N-(3,3,4,4,4-pentafluorobutan-2-yl)-1-(2,4,6-trifluorophenyl)-1,4-dihydro-1,8-naphthyridine-3-carboxamide]
  pEC50: 8.00
  Emax: 90%

## O=C(N[C@@H](C1CC1)C(F)(F)F)c1cn(-c2c(F)cc(F)cc2Cl)c2nc(N3C[C@@H](O)[C@H](O)C3)c(F)cc2c1=O (single isomer, unassigned) [Example 52]
  pEC50: 8.89
  Efficiency: 83%

## CC(NC(=O)c1cn(-c2c(F)cc(F)cc2F)c2nc(N3CCC4(C3)NC(=O)NC4=O)c(F)cc2c1=O)C(F)(F)C(F)(F)F (stereo not shown) [Example 235, 7-(2,4-Dioxo-1,3,7-triazaspiro[4.4]non-7-yl)-6-fluoro-4-oxo-N-[3,3,4,4,4-pentafluorobutan-2-yl]-1-(2,4,6-trifluorophenyl)-1,4-dihydro-1,8-naphthyridine-3-carboxamide]
  pEC50: 8.40
  Emax: 92%

## CC(C)C(NC(=O)c1cn(-c2c(F)cc(F)cc2F)c2nc(N3C[C@@H](O)[C@@H](O)C3)c(F)cc2c1=O)C(F)(F)F (single isomer, unassigned) [Example 138]
  pEC50: 8.12
  Efficiency: 84%

## CC[C@H](NC(=O)c1cn(-c2c(F)cc(F)cc2Cl)c2nc(N3C[C@@H](O)[C@H](O)C3)c(F)cc2c1=O)C(F)(F)F [Example 40, 1-(2-chloro-4,6-difluorophenyl)-7-[(3R,4R)-3,4-dihydroxypyrrolidin-1-yl]-6-fluoro-4-oxo-N-[(2S)-1,1,1-trifluorobutan-2-yl]-1,4-dihydro-1,8-naphthyridine-3-carboxamide]
  pEC50: 8.64
  Emax: 98%

## C[C@@H](NC(=O)c1cn(-c2c(F)cc(F)cc2F)c2nc(N3C[C@@H](O)[C@H](O)C3)c(F)cc2c1=O)C(F)(F)F [Example 219, 7-[(3R,4R)-3,4-dihydroxypyrrolidin-1-yl]-6-fluoro-4-oxo-1-(2,4,6-trifluorophenyl)-N-[(2R)-1,1,1-trifluoropropan-2-yl]-1,4-dihydro-1,8-naphthyridine-3-carboxamide]
  pEC50: 7.78
  Emax: 91%

## CC(NC(=O)c1cn(-c2ncc(F)cc2F)c2nc(N3CC[C@H](O)C3)c(F)cc2c1=O)C(F)(F)C(F)(F)F (mixture of isomers) [Example 127, 1-(3,5-Difluoropyridin-2-yl)-6-fluoro-7-[(3S)-3-hydroxypyrrolidin-1-yl]-4-oxo-N-[3,3,4,4,4-pentafluorobutan-2-yl]-1,4-dihydro-1,8-naphthyridine-3-carboxamide]
  pEC50: 7.89
  Emax: 92%

## COC[C@@H](NC(=O)c1cn(-c2c(F)cc(F)cc2F)c2nc(N3C[C@@H](O)[C@H](O)C3)c(F)cc2c1=O)C(C)C [Example 17, 7-[(3R,4R)-3,4-dihydroxypyrrolidin-1-yl]-6-fluoro-N-[(2S)-1-methoxy-3-methylbutan-2-yl]-4-oxo-1-(2,4,6-trifluorophenyl)-1,4-dihydro-1,8-naphthyridine-carboxamide]
  pEC50: 7.10
  Emax: 83%
